Results taken from ChEMBL document CHEMBL2176888, “Structure-activity relationships in human Toll-like receptor 8-active 2,3-diamino-furo[2,3-c]pyridines” (J Med Chem, 2012).
Activity calls are given as the source filed them.

Tests used:
Format in all cases: functional, cell-based
[1] = target: T1, Toll-like receptor 7 (Homo sapiens) (UniProt Q9NYK1); test: Agonist activity at human TLR7 expressed in HEK293 cells assessed as induction of NF-kappaB activity by measuring extracellular secreted alkaline phosphatase up to 250 uM by HEK-blue reporter gene assay
T1 sequence (whole entry): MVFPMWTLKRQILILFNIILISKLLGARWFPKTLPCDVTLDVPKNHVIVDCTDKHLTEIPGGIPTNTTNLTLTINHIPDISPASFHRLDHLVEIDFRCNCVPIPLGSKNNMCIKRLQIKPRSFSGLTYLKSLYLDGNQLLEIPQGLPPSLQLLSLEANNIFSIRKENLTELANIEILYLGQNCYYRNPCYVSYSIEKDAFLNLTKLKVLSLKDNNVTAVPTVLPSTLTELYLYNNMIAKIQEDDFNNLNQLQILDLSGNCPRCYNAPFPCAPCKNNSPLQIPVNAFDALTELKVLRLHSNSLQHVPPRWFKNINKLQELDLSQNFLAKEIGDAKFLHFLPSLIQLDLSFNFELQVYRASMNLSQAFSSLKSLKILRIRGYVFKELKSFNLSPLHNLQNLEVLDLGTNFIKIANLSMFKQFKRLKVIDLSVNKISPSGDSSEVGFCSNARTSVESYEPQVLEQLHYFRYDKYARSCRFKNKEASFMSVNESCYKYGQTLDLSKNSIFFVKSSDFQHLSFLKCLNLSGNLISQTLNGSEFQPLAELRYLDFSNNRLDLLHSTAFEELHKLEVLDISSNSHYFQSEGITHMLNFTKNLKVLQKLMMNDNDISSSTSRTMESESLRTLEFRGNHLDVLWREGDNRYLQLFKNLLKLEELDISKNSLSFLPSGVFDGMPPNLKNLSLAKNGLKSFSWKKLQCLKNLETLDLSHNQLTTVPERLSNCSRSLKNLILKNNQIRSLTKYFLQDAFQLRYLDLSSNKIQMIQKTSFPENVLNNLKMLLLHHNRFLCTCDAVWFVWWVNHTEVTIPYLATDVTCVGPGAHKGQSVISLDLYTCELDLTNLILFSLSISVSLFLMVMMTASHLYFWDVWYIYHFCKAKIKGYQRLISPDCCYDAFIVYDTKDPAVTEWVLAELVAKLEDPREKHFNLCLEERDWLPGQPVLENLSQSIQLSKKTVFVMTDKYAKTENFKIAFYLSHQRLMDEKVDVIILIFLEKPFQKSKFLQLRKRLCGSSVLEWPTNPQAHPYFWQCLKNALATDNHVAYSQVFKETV

[2] = target: Toll-like receptor 5 (Homo sapiens) (UniProt O60602); test: Agonist activity at human TLR5 expressed in HEK293 cells assessed as induction of NF-kappaB activity by measuring extracellular secreted alkaline phosphatase up to 250 uM by HEK-blue reporter gene assay
[3] = target: T2, Toll-like receptor 8 (Homo sapiens) (UniProt Q9NR97); test: Agonist activity at human TLR8 expressed in HEK293 cells assessed as induction of NF-kappaB activity by measuring extracellular secreted alkaline phosphatase up to 250 uM by HEK-blue reporter gene assay
T2 sequence (whole entry): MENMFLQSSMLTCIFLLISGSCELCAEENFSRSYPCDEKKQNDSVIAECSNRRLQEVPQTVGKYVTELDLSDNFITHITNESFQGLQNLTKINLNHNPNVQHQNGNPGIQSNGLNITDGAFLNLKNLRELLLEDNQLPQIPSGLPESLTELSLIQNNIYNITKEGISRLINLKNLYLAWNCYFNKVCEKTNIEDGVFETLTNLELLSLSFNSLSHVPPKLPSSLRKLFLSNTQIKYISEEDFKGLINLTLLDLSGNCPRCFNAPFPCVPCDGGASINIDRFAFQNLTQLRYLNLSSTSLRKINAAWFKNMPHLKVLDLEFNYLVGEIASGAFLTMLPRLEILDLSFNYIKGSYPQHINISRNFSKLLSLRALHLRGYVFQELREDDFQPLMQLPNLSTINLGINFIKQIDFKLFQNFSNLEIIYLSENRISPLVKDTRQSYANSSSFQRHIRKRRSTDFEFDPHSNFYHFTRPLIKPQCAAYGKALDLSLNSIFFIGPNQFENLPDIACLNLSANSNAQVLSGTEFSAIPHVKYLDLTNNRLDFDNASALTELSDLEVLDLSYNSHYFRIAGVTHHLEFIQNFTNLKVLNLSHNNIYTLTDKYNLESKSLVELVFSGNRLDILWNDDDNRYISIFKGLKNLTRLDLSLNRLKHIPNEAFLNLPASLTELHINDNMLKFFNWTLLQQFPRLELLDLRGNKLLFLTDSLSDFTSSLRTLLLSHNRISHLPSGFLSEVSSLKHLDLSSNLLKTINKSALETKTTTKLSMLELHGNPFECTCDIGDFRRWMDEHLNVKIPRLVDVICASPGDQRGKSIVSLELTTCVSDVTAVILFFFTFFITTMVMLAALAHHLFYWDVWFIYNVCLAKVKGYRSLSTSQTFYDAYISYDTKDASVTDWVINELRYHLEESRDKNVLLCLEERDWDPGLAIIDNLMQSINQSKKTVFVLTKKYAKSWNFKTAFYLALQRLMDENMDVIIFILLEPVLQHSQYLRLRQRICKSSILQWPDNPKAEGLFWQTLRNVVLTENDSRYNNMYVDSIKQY

[4] = target: T3, Toll-like receptor 9 (Homo sapiens) (UniProt Q9NR96); test: Agonist activity at human TLR9 expressed in HEK293 cells assessed as induction of NF-kappaB activity by measuring extracellular secreted alkaline phosphatase up to 250 uM by HEK-blue reporter gene assay
T3 sequence (whole entry): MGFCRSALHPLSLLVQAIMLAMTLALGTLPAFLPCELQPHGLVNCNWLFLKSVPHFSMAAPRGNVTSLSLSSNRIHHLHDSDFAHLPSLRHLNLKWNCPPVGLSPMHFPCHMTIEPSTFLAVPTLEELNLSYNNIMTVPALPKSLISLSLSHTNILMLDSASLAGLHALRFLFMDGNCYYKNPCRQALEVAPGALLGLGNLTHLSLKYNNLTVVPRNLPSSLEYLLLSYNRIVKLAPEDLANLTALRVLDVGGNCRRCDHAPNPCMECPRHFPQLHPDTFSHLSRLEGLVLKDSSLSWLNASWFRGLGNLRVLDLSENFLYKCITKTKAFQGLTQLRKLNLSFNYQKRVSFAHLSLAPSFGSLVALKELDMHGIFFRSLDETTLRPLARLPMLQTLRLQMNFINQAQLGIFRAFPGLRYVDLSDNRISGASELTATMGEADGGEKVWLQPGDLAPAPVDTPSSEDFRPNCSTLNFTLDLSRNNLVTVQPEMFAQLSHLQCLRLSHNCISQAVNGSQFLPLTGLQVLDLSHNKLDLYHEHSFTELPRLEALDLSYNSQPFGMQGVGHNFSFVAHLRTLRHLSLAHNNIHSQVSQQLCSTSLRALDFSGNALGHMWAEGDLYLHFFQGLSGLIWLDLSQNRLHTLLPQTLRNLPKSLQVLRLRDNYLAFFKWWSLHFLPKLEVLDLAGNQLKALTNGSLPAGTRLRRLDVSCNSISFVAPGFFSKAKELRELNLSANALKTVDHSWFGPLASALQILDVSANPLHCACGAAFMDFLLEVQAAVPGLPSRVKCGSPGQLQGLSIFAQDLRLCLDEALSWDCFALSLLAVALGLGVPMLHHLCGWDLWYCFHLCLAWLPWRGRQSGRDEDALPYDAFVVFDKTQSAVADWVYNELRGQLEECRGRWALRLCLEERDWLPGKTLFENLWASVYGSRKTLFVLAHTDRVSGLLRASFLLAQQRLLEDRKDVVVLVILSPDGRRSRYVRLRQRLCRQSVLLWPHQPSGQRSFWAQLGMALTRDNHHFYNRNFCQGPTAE

[5] = target: Toll-like receptor 4 (Homo sapiens) (UniProt O00206); test: Agonist activity at human TLR4 expressed in HEK293 cells assessed as induction of NF-kappaB activity by measuring extracellular secreted alkaline phosphatase up to 250 uM by HEK-blue reporter gene assay
[6] = target: Toll-like receptor 3 (Homo sapiens) (UniProt O15455); test: Agonist activity at human TLR3 expressed in HEK293 cells assessed as induction of NF-kappaB activity by measuring extracellular secreted alkaline phosphatase up to 250 uM by HEK-blue reporter gene assay

Measured: Activity

Toll-like receptor 3 (Homo sapiens), sequence (O15455 whole entry): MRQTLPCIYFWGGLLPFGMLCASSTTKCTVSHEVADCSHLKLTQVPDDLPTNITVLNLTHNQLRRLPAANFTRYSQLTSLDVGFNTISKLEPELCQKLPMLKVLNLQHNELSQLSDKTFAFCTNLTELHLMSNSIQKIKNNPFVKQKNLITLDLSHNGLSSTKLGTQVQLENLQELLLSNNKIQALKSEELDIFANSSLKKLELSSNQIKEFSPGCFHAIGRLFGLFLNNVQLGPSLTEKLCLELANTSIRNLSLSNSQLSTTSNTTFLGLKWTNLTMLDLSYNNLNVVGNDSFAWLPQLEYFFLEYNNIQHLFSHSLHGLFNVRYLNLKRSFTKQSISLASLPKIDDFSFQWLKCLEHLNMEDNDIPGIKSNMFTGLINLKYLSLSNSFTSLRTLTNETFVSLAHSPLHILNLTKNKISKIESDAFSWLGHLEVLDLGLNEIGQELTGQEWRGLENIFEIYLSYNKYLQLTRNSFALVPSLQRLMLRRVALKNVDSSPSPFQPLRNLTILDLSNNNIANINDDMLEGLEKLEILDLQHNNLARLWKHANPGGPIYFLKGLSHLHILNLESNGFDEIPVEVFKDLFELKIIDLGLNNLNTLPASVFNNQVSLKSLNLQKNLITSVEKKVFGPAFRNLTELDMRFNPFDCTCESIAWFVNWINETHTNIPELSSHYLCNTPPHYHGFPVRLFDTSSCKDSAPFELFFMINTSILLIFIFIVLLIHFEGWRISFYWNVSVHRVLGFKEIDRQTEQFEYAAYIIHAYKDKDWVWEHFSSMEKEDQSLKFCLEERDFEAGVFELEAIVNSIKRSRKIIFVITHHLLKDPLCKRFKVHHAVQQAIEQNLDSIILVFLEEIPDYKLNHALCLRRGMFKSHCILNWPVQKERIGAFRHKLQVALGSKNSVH
Toll-like receptor 4 (Homo sapiens), sequence (O00206 whole entry): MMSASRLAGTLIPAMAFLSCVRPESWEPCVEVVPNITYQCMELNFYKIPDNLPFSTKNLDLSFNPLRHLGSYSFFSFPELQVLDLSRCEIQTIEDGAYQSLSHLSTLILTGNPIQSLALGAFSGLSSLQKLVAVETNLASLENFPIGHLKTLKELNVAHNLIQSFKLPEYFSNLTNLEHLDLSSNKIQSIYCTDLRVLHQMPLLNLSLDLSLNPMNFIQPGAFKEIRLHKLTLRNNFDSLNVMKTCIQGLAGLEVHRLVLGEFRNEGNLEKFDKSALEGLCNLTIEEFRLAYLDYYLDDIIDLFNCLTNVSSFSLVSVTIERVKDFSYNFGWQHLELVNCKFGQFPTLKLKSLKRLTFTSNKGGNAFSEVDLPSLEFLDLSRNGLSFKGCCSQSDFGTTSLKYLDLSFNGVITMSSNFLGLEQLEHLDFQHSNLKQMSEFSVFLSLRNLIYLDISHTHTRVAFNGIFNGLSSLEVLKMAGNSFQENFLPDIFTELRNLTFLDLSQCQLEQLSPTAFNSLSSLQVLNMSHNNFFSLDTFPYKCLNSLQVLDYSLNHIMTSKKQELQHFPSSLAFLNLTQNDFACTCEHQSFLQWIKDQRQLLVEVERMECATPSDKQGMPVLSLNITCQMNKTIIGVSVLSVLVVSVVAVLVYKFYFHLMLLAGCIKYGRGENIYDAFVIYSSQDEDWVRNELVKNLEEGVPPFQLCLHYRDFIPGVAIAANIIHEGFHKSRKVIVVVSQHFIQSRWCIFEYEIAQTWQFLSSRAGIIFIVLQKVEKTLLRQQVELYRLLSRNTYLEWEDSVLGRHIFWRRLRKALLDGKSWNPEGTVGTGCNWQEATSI
Toll-like receptor 5 (Homo sapiens), sequence (O60602 whole entry): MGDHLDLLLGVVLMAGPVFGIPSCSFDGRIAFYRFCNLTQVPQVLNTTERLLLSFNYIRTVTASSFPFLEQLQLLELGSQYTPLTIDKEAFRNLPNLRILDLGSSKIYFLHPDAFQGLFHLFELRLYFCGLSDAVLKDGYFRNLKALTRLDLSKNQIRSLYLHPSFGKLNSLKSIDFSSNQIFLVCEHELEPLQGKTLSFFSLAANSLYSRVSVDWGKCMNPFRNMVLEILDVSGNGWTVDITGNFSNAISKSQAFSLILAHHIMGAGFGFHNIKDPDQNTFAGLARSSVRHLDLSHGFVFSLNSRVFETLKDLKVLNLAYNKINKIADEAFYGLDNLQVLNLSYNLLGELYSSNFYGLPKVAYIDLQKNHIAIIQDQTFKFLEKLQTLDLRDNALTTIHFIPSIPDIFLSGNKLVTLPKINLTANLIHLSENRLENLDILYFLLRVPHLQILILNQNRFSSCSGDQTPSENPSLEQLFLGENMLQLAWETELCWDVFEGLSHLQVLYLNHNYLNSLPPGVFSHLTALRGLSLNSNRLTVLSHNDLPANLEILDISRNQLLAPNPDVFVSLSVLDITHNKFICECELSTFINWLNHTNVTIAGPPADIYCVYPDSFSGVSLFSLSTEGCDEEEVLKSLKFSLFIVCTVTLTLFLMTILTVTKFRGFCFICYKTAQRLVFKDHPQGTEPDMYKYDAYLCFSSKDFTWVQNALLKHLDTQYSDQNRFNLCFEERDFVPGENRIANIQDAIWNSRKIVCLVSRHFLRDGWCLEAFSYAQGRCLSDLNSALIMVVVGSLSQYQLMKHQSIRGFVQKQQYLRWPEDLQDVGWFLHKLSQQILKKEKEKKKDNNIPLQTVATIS

Nc1nccn2c(NC3CCCCC3)c(-c3ccc(-c4ccccc4)cc3)nc12
inactive: all assays above

c1ccc(-c2nc3cnccn3c2NC2CCCCC2)cc1
inactive: all assays above

Nc1nccn2c(NC3CCCCC3)c(-c3ccccc3)nc12
inactive: all assays above

CC(C)(C)Nc1c(-c2ccncc2)nc2ccccn12
inactive: all assays above

c1ccc(-c2nc3ccccn3c2NC2CCCCC2)cc1
inactive: all assays above

c1ccc(CNc2c(-c3ccccc3)nc3ccccn23)cc1
inactive: all assays above

CC(C)(C)Nc1c(-c2ccccc2O)nc2ccccn12
inactive: all assays above

Oc1ccccc1-c1nc2cnccn2c1NC1CCCCC1
inactive: all assays above

CC(C)(C)Nc1c(-c2ccncc2)nc2cnccn12
inactive: all assays above

c1ccc(CNc2c(-c3ccncc3)nc3ccccn23)cc1
inactive: all assays above

Oc1ccccc1-c1nc2ccccn2c1NCc1ccccc1
inactive: all assays above

Oc1ccccc1-c1nc2ccccn2c1NC1CCCCC1
inactive: all assays above

Oc1ccccc1-c1nc2cnccn2c1NCc1ccccc1
inactive: all assays above

CC(C)(C)Nc1c(-c2ccccc2O)nc2cnccn12
inactive: all assays above
